From patent US20240218022A1, “ANTI-VISTA MACROCYCLIC PEPTIDES AND COMPOSITIONS” (BRISTOL-MYERS SQUIBB COMPANY, priority 2022, published 2024)
Starred links: 1 amine or outer side, 2 acyl side, 3 side chain; linkers in the order of their positions; H or OH if unused. Positions of bridges follow the written chain, without caps; N, C: chain ends. Non-standard residues stand in square brackets, D forms with d. Residues, ends and D or L forms follow the SMILES beside them. NMeW = CN[C@@H](Cc1c[nH]c2ccccc12)C(=O)O; βAsp = O=C(O)[C@H](CC(=O)[*:2])N[*:1]; NMeY = CN[C@@H](Cc1ccc(O)cc1)C(=O)O; Tic = O=C(O)[C@@H]1Cc2ccccc2CN1; Cit = NC(=O)NCCC[C@H](N)C(=O)O; NMeL = CN[C@@H](CC(C)C)C(=O)O; Ahp(2) = CCCCC[C@H](N)C(=O)O; NMeNle = CCCC[C@H](NC)C(=O)O; Tle = CC(C)(C)[C@H](N)C(=O)O; NMeV = CN[C@H](C(=O)O)C(C)C; NMeS = CN[C@@H](CO)C(=O)O; NHexGly = CCCCCCNCC(=O)O; Nle = CCCC[C@H](N)C(=O)O; Orn = NCCC[C@H](N)C(=O)O; Aun = NCCCCCCCCCCC(=O)O; AEEA = NCCOCCOCC(=O)O

biological target: T1, mouse VISTA (mVISTA) (Mus musculus, UniProt Q9D659); experiment: Cell-Based Binding High-Content Assay For mVISTA (HC CBA mVISTA); details: cell-based binding high-content assay, mVISTA; read-out: HC CBA miPr ISTA IC50
T1 construct: expressed in transfected cells; host or cells: Human embryonic kidney 293T cells
T1 sequence (Q9D659 33-308): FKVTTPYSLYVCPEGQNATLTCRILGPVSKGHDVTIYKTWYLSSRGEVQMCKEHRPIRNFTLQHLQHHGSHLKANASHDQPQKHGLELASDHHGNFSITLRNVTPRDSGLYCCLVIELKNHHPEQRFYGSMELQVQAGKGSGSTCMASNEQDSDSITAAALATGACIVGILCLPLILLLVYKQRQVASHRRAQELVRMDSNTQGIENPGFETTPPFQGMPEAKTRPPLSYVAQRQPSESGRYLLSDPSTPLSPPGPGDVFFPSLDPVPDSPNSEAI
Summary of the method: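 This high-content binding assay uses HEK293T cells expressing murine VISTA, measuring displacement of 2 nM biotinylated peptide by fluorescent streptavidin imaging. IC50 values come from four-parameter logistic fitting.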

| IC50 [nM] | Compound |
| --- | --- |
| 16.1 | CCCCCCN1CC(=O)N[C@@H](Cc2ccc(O)cc2)C(=O)N[C@@H](CC(C)C)C(=O)N[C@@H](CC(N)=O)C(=O)N[C@@H](CCCN)C(=O)N(C)[C@@H](CC(C)C)C(=O)N[C@@H](CCCCC)C(=O)N2CCC[C@H]2C(=O)N[C@@H](C(C)(C)C)C(=O)N[C@@H](CO)C(=O)N[C@H](C(=O)N[C@@H](CC(=O)NCCOCCOCC(=O)N[C@@H](CC(=O)O)C(=O)NCCOCCOCC(=O)NCCCCCCCCCCC(=O)O)C(=O)O)CSCC(=O)N[C@@H](Cc2ccccc2)C(=O)N[C@@H](Cc2ccc(O)cc2)C(=O)N[C@@H](CC(=O)O)C1=O [Example 2000] ({CH2CO}-FYD[NHexGly]YLN[Orn][NMeL][Ahp(2)]P[Tle]SC[βAsp][AEEA]D[AEEA][Aun]-OH; thioether N-14) |

same assay, conditions: read-out: HC CBA mVISTA IC50

| IC50 [nM] | Compound |
| --- | --- |
| 6.4 | CCCCCCN1CC(=O)N[C@@H](Cc2ccc(O)cc2)C(=O)N[C@@H](CCCC)C(=O)N[C@@H](CC(N)=O)C(=O)N[C@@H](CCCNC(=N)N)C(=O)N(C)[C@@H](CCCC)C(=O)N[C@@H](CCCCC)C(=O)N2CCC[C@H]2C(=O)N[C@@H](C(C)C)C(=O)N[C@@H](CC(=O)O)C(=O)N[C@H](C(=O)N[C@@H](CO)C(=O)O)CSCC(=O)N[C@@H](Cc2ccccc2)C(=O)N[C@@H](Cc2c[nH]c3ccccc23)C(=O)N[C@@H](CC(=O)O)C1=O [Example 1406] ({CH2CO}-FWD[NHexGly]Y[Nle]NR[NMeNle][Ahp(2)]PVDCS-OH; thioether N-14) |
| 34.5 | CCCCCCN1CC(=O)N[C@@H](Cc2ccc(O)cc2)C(=O)N[C@@H](CCCC)C(=O)N[C@@H](CC(=O)O)C(=O)N[C@@H](CCCNC(=N)N)C(=O)N(C)[C@@H](CCCC)C(=O)N[C@@H](CCCCC)C(=O)N2CCC[C@H]2C(=O)N[C@@H](C(C)C)C(=O)N[C@@H](CC(=O)O)C(=O)N[C@H](C(=O)N[C@@H](CO)C(N)=O)CSCC(=O)N[C@@H](Cc2ccccc2)C(=O)N[C@@H](Cc2c[nH]c3ccccc23)C(=O)N[C@@H](CC(=O)O)C1=O [Example 1407] ({CH2CO}-FWD[NHexGly]Y[Nle]DR[NMeNle][Ahp(2)]PVDCS-NH2; thioether N-14) |
| 12.7 | CCCCCCN1CC(=O)N[C@@H](Cc2ccc(O)cc2)C(=O)N[C@@H](CCCC)C(=O)N[C@@H](CC(N)=O)C(=O)N[C@@H](CCCNC(=N)N)C(=O)N(C)[C@@H](C(C)C)C(=O)N[C@@H](CCCCC)C(=O)N2CCC[C@H]2C(=O)N[C@@H](C(C)C)C(=O)N[C@@H](CC(=O)O)C(=O)N[C@H](C(=O)NCC(=O)O)CSCC(=O)N[C@@H](Cc2ccccc2)C(=O)N[C@@H](Cc2c[nH]c3ccccc23)C(=O)N[C@@H](CC(=O)O)C1=O [Example 1409] ({CH2CO}-FWD[NHexGly]Y[Nle]NR[NMeV][Ahp(2)]PVDCG-OH; thioether N-14) |
| 18.9 | CCCCCCN1CC(=O)N[C@@H](Cc2ccc(O)cc2)C(=O)N[C@@H](CCCC)C(=O)N[C@@H](CC(N)=O)C(=O)N[C@@H](CCCNC(N)=O)C(=O)N2Cc3ccccc3C[C@H]2C(=O)N[C@@H](CCCCC)C(=O)N2CCC[C@H]2C(=O)N[C@@H](C(C)C)C(=O)N[C@@H](CO)C(=O)N[C@H](C(=O)NCC(N)=O)CSCC(=O)N[C@@H](Cc2ccccc2)C(=O)N[C@@H](Cc2c[nH]c3ccccc23)C(=O)N[C@@H](CC(=O)O)C1=O [Example 1413] ({CH2CO}-FWD[NHexGly]Y[Nle]N[Cit][Tic][Ahp(2)]PVSCG-NH2; thioether N-14) |
| 18.1 | CCCCCCN1CC(=O)N[C@@H](Cc2ccc(O)cc2)C(=O)N[C@@H](CCCC)C(=O)N[C@@H](CC(N)=O)C(=O)N[C@@H](CCCNC(=N)N)C(=O)N2Cc3ccccc3C[C@H]2C(=O)N[C@@H](CCCCC)C(=O)N2CCC[C@H]2C(=O)N[C@@H](C(C)C)C(=O)N[C@@H](CO)C(=O)N[C@H](C(=O)NCC(N)=O)CSCC(=O)N[C@@H](Cc2ccccc2)C(=O)N[C@@H](Cc2c[nH]c3ccccc23)C(=O)N[C@@H](CC(=O)O)C1=O [Example 1415] ({CH2CO}-FWD[NHexGly]Y[Nle]NR[Tic][Ahp(2)]PVSCG-NH2; thioether N-14) |
| 51.7 | CCCCCCN1CC(=O)N[C@@H](Cc2ccc(O)cc2)C(=O)N[C@@H](CC(C)C)C(=O)NCC(=O)N[C@@H](CCCNC(=N)N)C(=O)N[C@@H](Cc2ccc(O)cc2)C(=O)N[C@@H](CCCCC)C(=O)N2CCC[C@H]2C(=O)N[C@@H](C(C)C)C(=O)N[C@@H](CC(=O)O)C(=O)N[C@H](C(=O)NCC(N)=O)CSCC(=O)N[C@@H](Cc2ccccc2)C(=O)N[C@@H](Cc2c[nH]c3ccccc23)C(=O)N[C@@H](CC(=O)O)C1=O [Example 1416] ({CH2CO}-FWD[NHexGly]YLGRY[Ahp(2)]PVDCG-NH2; thioether N-14) |

The remaining lines, values behind:

| Compound | IC50 [nM] |
| --- | --- |
| CCCCCCN1CC(=O)N[C@@H](Cc2ccc(O)cc2)C(=O)N[C@@H](CCCC)C(=O)N[C@@H](CC(N)=O)C(=O)N[C@@H](CCCN)C(=O)N(C)[C@@H](CCCC)C(=O)N[C@@H](CCCCC)C(=O)N2CCC[C@H]2C(=O)N[C@@H](C(C)(C)C)C(=O)N[C@@H](CC(=O)O)C(=O)N[C@H](C(=O)N[C@@H](CC(N)=O)C(=O)O)CSCC(=O)N[C@@H](Cc2ccccc2)C(=O)N[C@@H](Cc2c[nH]c3ccccc23)C(=O)N[C@@H](CC(=O)O)C1=O [Example 1404] ({CH2CO}-FWD[NHexGly]Y[Nle]N[Orn][NMeNle][Ahp(2)]P[Tle]DCN-OH; thioether N-14) | 16 |
| CCCCCCN1CC(=O)N[C@@H](Cc2ccc(O)cc2)C(=O)N[C@@H](CCCCC)C(=O)N[C@@H](CC(N)=O)C(=O)N[C@@H](CCCNC(=N)N)C(=O)N(C)[C@@H](CCCC)C(=O)N[C@@H](CCCCC)C(=O)N2CCC[C@H]2C(=O)N[C@@H](C(C)C)C(=O)N[C@@H](CC(=O)O)C(=O)N[C@H](C(=O)N[C@@H](CO)C(N)=O)CSCC(=O)N[C@@H](Cc2ccccc2)C(=O)N[C@@H](Cc2c[nH]c3ccccc23)C(=O)N[C@@H](CC(=O)O)C1=O [Example 1405] ({CH2CO}-FWD[NHexGly]Y[Ahp(2)]NR[NMeNle][Ahp(2)]PVDCS-NH2; thioether N-14) | 5 |
| CCCCCCN1CC(=O)N[C@@H](Cc2ccc(O)cc2)C(=O)N[C@@H](CCCC)C(=O)N[C@@H](CC(N)=O)C(=O)N[C@@H](CCCNC(=N)N)C(=O)N(C)[C@@H](CO)C(=O)N[C@@H](CCCCC)C(=O)N2CCC[C@H]2C(=O)N[C@@H](C(C)C)C(=O)N[C@@H](CC(=O)O)C(=O)N[C@H](C(=O)NCC(=O)O)CSCC(=O)N[C@@H](Cc2ccccc2)C(=O)N[C@@H](Cc2c[nH]c3ccccc23)C(=O)N[C@@H](CC(=O)O)C1=O [Example 1408] ({CH2CO}-FWD[NHexGly]Y[Nle]NR[NMeS][Ahp(2)]PVDCG-OH; thioether N-14) | 20.8 |
| CCCCCCN1CC(=O)N[C@@H](Cc2ccc(O)cc2)C(=O)N[C@@H](CCCC)C(=O)N[C@@H](CC(N)=O)C(=O)N[C@@H](CCCNC(=N)N)C(=O)N(C)[C@@H](Cc2c[nH]c3ccccc23)C(=O)N[C@@H](CCCCC)C(=O)N2CCC[C@H]2C(=O)N[C@@H](C(C)C)C(=O)N[C@@H](CC(=O)O)C(=O)N[C@H](C(=O)NCC(=O)O)CSCC(=O)N[C@@H](Cc2ccccc2)C(=O)N[C@@H](Cc2c[nH]c3ccccc23)C(=O)N[C@@H](CC(=O)O)C1=O [Example 1410] ({CH2CO}-FWD[NHexGly]Y[Nle]NR[NMeW][Ahp(2)]PVDCG-OH; thioether N-14) | 5.3 |
| CCCCCCN1CC(=O)N[C@@H](Cc2ccc(O)cc2)C(=O)N[C@@H](CCCC)C(=O)N[C@@H](CC(N)=O)C(=O)N[C@@H](CCCNC(=N)N)C(=O)N(C)[C@@H](Cc2ccc(O)cc2)C(=O)N[C@@H](CCCCC)C(=O)N2CCC[C@H]2C(=O)N[C@@H](C(C)C)C(=O)N[C@@H](CC(=O)O)C(=O)N[C@H](C(=O)NCC(=O)O)CSCC(=O)N[C@@H](Cc2ccccc2)C(=O)N[C@@H](Cc2c[nH]c3ccccc23)C(=O)N[C@@H](CC(=O)O)C1=O [Example 1411] ({CH2CO}-FWD[NHexGly]Y[Nle]NR[NMeY][Ahp(2)]PVDCG-OH; thioether N-14) | 18.6 |
| CCCCCCN1CC(=O)N[C@@H](Cc2ccc(O)cc2)C(=O)N[C@@H](CCCC)C(=O)N[C@@H](CC(N)=O)C(=O)N[C@@H](CCCNC(N)=O)C(=O)N2Cc3ccccc3C[C@H]2C(=O)N[C@@H](CCCCC)C(=O)N2CCC[C@H]2C(=O)N[C@@H](C(C)C)C(=O)N[C@@H](CC(=O)O)C(=O)N[C@H](C(=O)NCC(N)=O)CSCC(=O)N[C@@H](Cc2ccccc2)C(=O)N[C@@H](Cc2c[nH]c3ccccc23)C(=O)N[C@@H](CC(=O)O)C1=O [Example 1412] ({CH2CO}-FWD[NHexGly]Y[Nle]N[Cit][Tic][Ahp(2)]PVDCG-NH2; thioether N-14) | 13.1 |
| CCCCCCN1CC(=O)N[C@@H](Cc2ccc(O)cc2)C(=O)N[C@@H](CCCC)C(=O)N[C@@H](CC(N)=O)C(=O)N[C@@H](CCCNC(=N)N)C(=O)N2Cc3ccccc3C[C@H]2C(=O)N[C@@H](CCCCC)C(=O)N2CCC[C@H]2C(=O)N[C@@H](C(C)C)C(=O)N[C@@H](CC(=O)O)C(=O)N[C@H](C(=O)NCC(N)=O)CSCC(=O)N[C@@H](Cc2ccccc2)C(=O)N[C@@H](Cc2c[nH]c3ccccc23)C(=O)N[C@@H](CC(=O)O)C1=O [Example 1414] ({CH2CO}-FWD[NHexGly]Y[Nle]NR[Tic][Ahp(2)]PVDCG-NH2; thioether N-14) | 12.3 |
| CCCCCCN1CC(=O)N[C@@H](Cc2ccc(O)cc2)C(=O)N[C@@H](CC(C)C)C(=O)NCC(=O)N[C@@H](CCCNC(=N)N)C(=O)N[C@@H](Cc2ccc(O)cc2)C(=O)N[C@@H](CCCCC)C(=O)N2CCC[C@H]2C(=O)N[C@@H](C(C)C)C(=O)N[C@@H](CC(=O)O)C(=O)N[C@H](C(=O)NCC(=O)O)CSCC(=O)N[C@@H](Cc2ccccc2)C(=O)N[C@@H](Cc2c[nH]c3ccccc23)C(=O)N[C@@H](CC(=O)O)C1=O [Example 1417] ({CH2CO}-FWD[NHexGly]YLGRY[Ahp(2)]PVDCG-OH; thioether N-14) | 24.9 |
